Consider six compounds from ChEMBL document CHEMBL1275330, “Rational design, synthesis, and evaluation of new selective inhibitors of microbial class II (zinc dependent) fructose bis-phosphate aldolases” (J Med Chem, 2010).

Structures are written as SMILES. “And” between values parts separate entries of the source, which are not always exact repeats. Identical values can stand only once.

The target in experiment [1] is T1, Fructose-bisphosphate aldolase (Mycobacterium tuberculosis, UniProt P9WQA3).
T1 sequence (P9WQA3 whole entry): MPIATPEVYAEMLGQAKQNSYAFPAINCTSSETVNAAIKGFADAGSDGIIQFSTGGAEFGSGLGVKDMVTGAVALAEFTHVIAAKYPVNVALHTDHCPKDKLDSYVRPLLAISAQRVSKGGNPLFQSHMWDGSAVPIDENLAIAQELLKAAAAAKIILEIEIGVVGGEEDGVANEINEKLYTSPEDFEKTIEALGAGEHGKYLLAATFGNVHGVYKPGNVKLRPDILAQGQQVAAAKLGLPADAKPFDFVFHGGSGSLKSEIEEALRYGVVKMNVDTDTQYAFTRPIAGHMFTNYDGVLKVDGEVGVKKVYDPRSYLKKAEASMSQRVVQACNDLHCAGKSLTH

Experiment [2] concerns the target T2, Fructose-bisphosphate aldolase class II (Yersinia pestis, UniProt A0A380PJR2).
T2 sequence (A0A380PJR2 whole entry): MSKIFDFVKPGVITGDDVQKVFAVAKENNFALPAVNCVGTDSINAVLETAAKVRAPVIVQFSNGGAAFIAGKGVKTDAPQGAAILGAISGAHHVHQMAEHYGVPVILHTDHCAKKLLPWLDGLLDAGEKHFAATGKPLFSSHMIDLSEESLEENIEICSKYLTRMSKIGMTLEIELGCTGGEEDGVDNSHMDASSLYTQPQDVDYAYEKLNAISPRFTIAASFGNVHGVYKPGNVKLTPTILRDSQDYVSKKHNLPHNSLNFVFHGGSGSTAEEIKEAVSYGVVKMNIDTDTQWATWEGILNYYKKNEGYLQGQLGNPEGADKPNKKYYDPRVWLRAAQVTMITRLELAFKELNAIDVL

Experiment [3] has as its target T3, Fructose-bisphosphate aldolase (Candida albicans (strain SC5314 / ATCC MYA-2876) (Yeast), UniProt Q9URB4).
T3 sequence (Q9URB4 whole entry): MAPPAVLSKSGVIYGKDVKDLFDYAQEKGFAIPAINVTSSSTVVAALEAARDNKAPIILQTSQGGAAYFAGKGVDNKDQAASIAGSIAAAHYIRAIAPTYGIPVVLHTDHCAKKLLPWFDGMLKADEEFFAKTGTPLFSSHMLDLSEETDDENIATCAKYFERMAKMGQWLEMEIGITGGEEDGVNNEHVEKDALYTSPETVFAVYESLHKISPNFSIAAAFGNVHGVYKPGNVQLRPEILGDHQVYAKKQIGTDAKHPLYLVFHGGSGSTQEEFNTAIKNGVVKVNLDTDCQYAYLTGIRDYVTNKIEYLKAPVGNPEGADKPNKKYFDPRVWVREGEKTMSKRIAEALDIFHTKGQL
The experiment is described as follows: Inhibition of Candida albicans zinc dependent class 2 Fba.

Experiment [4] concerns the target T4, Fructose-bisphosphate aldolase A (Oryctolagus cuniculus, UniProt P00883).
T4 sequence (P00883 whole entry): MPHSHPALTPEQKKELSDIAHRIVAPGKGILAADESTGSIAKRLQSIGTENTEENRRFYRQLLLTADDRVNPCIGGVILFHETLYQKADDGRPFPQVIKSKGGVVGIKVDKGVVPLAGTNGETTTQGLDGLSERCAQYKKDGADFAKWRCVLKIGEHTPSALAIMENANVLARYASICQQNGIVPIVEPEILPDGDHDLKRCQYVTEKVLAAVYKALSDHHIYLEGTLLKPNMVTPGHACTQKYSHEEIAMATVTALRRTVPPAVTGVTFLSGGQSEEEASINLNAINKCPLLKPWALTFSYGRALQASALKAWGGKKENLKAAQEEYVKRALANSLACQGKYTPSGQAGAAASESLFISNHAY

The target in experiment [5] is T5, Fructose-bisphosphate aldolase (Helicobacter pylori (strain ATCC 700392 / 26695) (Campylobacterpylori), UniProt P56109).
T5 sequence (P56109 whole entry): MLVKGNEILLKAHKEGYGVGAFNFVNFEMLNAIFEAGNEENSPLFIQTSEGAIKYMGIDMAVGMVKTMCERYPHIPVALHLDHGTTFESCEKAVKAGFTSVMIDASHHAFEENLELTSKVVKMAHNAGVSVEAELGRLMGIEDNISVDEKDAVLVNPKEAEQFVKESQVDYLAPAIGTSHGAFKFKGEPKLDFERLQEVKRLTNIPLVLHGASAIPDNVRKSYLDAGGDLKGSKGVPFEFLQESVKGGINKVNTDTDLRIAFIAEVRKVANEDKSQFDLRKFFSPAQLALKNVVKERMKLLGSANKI

On to `O=C(COP(=O)(O)O)[C@@H](O)[C@H](O)[C@H](O)COP(=O)(O)O`, for which the figures for the Ki in experiment [1] and in experiment [2] were 21 µM and 55 µM, respectively.

On to `O=C(COP(=O)(O)O)N(O)CCCCO`, for which, in experiment [3], the Ki was 0.3 µM and 0.297 µM.

As to `O=C(COP(=O)(O)O)N(O)CCCCOP(=O)(O)O`, the IC50 in experiment [3] came to 0.0048 µM; in experiment [4], 112 µM; in experiment [5], 0.131 µM; in experiment [1], 0.0032 µM; in experiment [2], 0.036 µM. Also, in experiment [3], the Ki was 0.003 µM and 0.00325 µM.

For `O=C(COP(=O)(O)O)N(O)CCCO`, affinity in experiment [4] was put at a Ki of 2500 µM.

In the case of `CCCCCC(=O)OCCCCN(O)C(=O)COP(=O)(O)O`, the Ki in experiment [3] was 0.28 µM and 0.276 µM.

For the compound `CCCCCCCCCCCC(=O)OCCCCN(O)C(=O)COP(=O)(O)O`, the Ki in experiment [3] is 0.8 µM and 0.815 µM; in experiment [4], 67 µM.

One may read the Ki as the dissociation constant of the complex between target and ligand, obtained from inhibition or displacement. A low value points to higher affinity. The IC50 is the midpoint of a concentration-inhibition curve. Read a low IC50 as greater potency in that assay.
